Data reported in ChEMBL document CHEMBL1201862, “PubChem BioAssay data set” (2004).
Activity calls are given as the source filed them.

What was measured:
[1] = luciferase reporter signal suppression in cells – H4 neuroglioma cells, luminescence, dose response (AID 1990); assay type: functional, cell-based
cells [2] = assay type: functional, cell-based
[3] = Luminescence Cell-Based Dose Response HTS to Identify Inhibitors of 5'UTR Stem-Loop Driven Prion Protein mRNA Translation in H4 Neuroglioblastoma Cells. [Related pubchem assays: 1827 (Project Summary), 1813 (Primary HTS)]; assay type: functional
[4] = alpha-synuclein stem-loop luciferase translation blockers – H4 neuroglioma cells, luminescence, confirmation (AID 1988); assay type: functional, cell-based
cells [5] = assay type: functional, cell-based; remark: listed apart in the source
[6] = molecular target: T1, Microphthalmia-associated transcription factor (Homo sapiens, UniProt O75030); assay: reducers of TRPM1 reporter luminescence, concentration series – cell-based, SK-MEL-5, cherry-picked, set 3, MITF inhibitor project, dose response (AID 493073); assay type: functional;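 note: SK-MEL-5 melanoma cells with luciferase driven by the MITF target TRPM1 promoter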
T1 sequence (O75030 whole entry): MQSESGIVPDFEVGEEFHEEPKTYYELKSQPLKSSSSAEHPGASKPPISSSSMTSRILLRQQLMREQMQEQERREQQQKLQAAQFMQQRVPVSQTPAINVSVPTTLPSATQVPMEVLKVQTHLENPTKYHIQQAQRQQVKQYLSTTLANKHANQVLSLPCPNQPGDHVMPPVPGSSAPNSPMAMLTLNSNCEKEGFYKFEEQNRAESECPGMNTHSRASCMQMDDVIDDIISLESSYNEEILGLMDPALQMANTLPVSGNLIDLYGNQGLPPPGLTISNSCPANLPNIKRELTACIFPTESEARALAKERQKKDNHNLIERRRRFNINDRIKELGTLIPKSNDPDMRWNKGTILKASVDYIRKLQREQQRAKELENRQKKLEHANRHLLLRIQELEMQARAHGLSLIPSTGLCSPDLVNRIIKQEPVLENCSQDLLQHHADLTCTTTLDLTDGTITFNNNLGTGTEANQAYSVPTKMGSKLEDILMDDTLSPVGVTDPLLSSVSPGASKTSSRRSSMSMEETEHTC

INS1 = assay: INS-1E survival protection against cytokine death – cell-based, luminescence, retest, dose response (AID 449756); assay type: functional; settings: Rattus norvegicus;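 note: cell death triggered by IL-1 beta plus TNF-alpha plus IFN-gamma mixture; protective hits raise ATP signal compared with cytokine alone wells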
A-375 = assay: proliferation inhibition in MITF-low A375 cells – cell-based, cherry-pick samples, set 2, counter-screen for MITF modulator project, dose response (AID 540335); assay type: functional; settings: Homo sapiens
Escherichia coli = assay: microbe, parasite or virus in culture
[7] = molecular target: T2, Methionyl-tRNA synthetase, putative (Trypanosoma brucei brucei, UniProt Q38C91); assay type: functional, Trypanosoma brucei brucei strain 927/4 GUTat10.1
T2 sequence (Q38C91 whole entry): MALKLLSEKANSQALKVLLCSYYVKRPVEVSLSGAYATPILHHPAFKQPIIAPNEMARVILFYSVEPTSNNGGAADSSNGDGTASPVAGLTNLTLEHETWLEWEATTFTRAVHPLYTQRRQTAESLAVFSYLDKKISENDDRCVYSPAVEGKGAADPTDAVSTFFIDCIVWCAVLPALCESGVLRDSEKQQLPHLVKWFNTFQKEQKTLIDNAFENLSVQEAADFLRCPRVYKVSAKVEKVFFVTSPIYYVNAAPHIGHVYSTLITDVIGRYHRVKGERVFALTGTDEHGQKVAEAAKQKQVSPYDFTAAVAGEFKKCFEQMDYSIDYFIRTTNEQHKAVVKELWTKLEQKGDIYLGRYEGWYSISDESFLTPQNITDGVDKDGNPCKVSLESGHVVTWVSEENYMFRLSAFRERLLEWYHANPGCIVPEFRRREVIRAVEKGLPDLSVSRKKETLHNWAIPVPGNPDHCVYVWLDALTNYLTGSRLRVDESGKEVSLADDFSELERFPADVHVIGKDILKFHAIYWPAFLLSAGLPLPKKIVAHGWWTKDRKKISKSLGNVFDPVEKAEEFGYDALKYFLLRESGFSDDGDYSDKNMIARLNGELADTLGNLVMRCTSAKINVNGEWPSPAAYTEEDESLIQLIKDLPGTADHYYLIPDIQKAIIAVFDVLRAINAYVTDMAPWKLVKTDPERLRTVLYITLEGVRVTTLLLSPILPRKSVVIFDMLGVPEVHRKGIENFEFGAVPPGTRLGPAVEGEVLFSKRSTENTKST

[8] = Counterscreen for inhibitors of Trypanosoma brucei methionyl tRNA synthetase (MetRS): Luminescence-based cell-based high throughput dose response assay to identify compounds that are cytotoxic to Jurkat human T lymphocyte cells.; assay type: functional
[9] = molecular target: T2, Methionyl-tRNA synthetase, putative; assay type: functional, Trypanosoma brucei brucei strain 927/4 GUTat10.1; remark: listed apart in the source
HEK293 [10] = assay: inhibition of NOD1-driven NF-kB reporter – cell-based, luminescence, uHTS, primary screen (AID 1578); assay type: functional; settings: Homo sapiens
HEK293 [11] = assay: cells; assay type: functional, cell-based; settings: Homo sapiens
HEK293 [12] = assay: cells; assay type: functional, cell-based; settings: Homo sapiens; remark: listed apart in the source
[13] = molecular target: Nucleotide-binding oligomerization domain-containing protein 2 (Homo sapiens, UniProt Q9HC29); assay: inhibition of NOD2-driven NF-kB reporter – cell-based, luminescence, uHTS, HEK293 (AID 1566); assay type: functional
Sequence of Nucleotide-binding oligomerization domain-containing protein 2 (Q9HC29 whole entry, the tested form may be a part): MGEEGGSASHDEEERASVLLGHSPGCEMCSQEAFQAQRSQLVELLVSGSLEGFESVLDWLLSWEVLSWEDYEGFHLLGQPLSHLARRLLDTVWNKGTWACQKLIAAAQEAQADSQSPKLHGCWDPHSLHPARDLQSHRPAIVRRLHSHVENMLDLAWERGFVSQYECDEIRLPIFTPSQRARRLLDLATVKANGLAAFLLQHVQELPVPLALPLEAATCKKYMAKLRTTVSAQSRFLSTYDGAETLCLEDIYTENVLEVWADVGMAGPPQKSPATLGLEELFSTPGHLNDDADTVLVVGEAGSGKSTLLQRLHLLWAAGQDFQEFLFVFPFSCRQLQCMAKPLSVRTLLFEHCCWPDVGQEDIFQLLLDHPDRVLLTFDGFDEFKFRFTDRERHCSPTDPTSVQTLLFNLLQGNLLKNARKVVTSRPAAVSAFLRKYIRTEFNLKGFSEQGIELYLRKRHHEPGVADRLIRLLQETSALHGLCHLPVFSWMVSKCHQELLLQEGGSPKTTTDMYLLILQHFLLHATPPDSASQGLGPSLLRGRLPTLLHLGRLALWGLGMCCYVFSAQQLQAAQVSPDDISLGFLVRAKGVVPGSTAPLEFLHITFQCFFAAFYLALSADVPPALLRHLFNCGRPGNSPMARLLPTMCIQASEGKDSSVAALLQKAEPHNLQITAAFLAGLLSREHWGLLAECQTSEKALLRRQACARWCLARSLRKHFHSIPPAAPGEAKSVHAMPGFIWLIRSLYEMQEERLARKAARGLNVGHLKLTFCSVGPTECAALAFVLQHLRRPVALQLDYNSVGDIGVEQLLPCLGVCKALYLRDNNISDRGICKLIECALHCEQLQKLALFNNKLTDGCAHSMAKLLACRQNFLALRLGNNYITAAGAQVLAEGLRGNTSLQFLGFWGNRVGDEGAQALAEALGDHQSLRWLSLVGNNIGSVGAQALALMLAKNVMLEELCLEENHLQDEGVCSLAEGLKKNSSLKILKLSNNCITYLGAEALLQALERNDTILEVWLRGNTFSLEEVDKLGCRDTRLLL

HEK293 [14] = assay: NOD2 signaling inhibitors in MDP-stimulated cells, cell-based, uHTS, luminescence (AID 2001); assay type: functional; settings: Homo sapiens
HEK293 [15] = assay: cells; assay type: functional, cell-based; settings: Homo sapiens; remark: listed apart in the source
[16] = molecular target: Beta-2 adrenergic receptor (Homo sapiens, UniProt P07550); assay: ADRB2 activation measured by internalization – cell-based, FAP fluorogen, flow cytometry, cherry pick 1, dose response (AID 588763); assay type: functional
Sequence of Beta-2 adrenergic receptor (P07550 whole entry): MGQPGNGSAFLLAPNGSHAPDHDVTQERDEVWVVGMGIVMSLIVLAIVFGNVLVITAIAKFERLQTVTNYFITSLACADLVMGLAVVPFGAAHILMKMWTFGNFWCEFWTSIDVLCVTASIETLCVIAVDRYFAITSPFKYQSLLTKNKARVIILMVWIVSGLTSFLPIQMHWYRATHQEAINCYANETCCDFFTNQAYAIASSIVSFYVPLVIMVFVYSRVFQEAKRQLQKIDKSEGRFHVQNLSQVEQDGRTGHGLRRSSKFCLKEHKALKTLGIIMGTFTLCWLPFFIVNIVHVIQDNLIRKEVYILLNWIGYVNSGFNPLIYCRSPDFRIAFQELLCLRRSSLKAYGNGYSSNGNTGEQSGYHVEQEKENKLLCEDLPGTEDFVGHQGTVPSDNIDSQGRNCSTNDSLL

Large T antigen = Large T antigen (Simian virus 40, UniProt P03070); assay type: functional, Betapolyomavirus macacae;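 note: Confirmatory-stage PubChem screen for compounds that inhibit SV40 T antigen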
Sequence of Large T antigen (P03070 whole entry): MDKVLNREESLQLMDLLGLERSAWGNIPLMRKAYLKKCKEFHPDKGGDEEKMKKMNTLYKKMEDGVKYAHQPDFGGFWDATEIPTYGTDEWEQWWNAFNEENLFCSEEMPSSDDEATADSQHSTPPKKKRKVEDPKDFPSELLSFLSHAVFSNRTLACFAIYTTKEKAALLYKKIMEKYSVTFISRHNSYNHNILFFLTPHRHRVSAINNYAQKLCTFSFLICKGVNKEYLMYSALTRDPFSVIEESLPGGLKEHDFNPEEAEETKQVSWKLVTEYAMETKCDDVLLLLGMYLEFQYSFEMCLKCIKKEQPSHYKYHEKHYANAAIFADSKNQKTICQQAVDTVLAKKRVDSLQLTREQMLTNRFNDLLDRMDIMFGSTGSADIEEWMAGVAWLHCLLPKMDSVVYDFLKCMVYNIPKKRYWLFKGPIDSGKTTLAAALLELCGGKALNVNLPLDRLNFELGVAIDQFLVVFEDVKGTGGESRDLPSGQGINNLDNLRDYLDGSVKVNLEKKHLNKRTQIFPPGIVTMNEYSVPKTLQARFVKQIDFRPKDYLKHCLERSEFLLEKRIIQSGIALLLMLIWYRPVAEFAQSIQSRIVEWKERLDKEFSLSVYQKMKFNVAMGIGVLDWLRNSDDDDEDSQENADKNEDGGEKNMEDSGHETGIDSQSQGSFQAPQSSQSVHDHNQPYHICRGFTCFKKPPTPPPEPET

[17] = Luminescence Cell-Based Dose Retest to Confirm Inhibitors of Cancer Stem Cells. [Related pubchem assays (depositor defined):AID2717, AID2721]; assay type: functional; settings: Homo sapiens
[18] = molecular target: T3, Rac GTPase-activating protein 1 (Homo sapiens, UniProt Q9H0H5); assay: blockers of MgcRacGAP-driven Rac1 GTP hydrolysis – biochemical, ADP Hunter fluorescence, primary and confirmatory, confirmation (AID 624330); assay type: functional
T3 sequence (Q9H0H5 whole entry): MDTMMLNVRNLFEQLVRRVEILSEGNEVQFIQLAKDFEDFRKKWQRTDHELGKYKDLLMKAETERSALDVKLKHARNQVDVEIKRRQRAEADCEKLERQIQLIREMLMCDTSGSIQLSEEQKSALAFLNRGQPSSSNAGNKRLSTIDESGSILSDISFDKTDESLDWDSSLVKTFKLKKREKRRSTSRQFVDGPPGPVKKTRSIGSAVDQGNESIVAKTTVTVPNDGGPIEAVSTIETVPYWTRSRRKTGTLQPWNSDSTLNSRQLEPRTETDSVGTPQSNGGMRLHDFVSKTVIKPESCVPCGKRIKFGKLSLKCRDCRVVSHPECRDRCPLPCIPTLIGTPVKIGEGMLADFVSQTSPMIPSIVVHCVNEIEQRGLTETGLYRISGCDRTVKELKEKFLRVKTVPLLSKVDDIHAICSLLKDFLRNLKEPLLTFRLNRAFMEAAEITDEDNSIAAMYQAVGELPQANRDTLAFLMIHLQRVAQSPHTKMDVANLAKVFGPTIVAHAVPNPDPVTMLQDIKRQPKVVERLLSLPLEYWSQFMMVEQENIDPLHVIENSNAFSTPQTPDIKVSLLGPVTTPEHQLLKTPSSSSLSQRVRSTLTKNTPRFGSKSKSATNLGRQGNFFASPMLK

[19] = bead-based luminescence quenchers, dual-tagged ARNT – biochemical, AlphaScreen, cherry-pick, artefact control for ARNT-TACC3 interaction inhibitor project, dose response (AID 651705); assay type: functional;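 note: AlphaScreen bead proximity signal that flags compounds interfering with the detection technology; potency reflects signal decrease which marks the compound as an assay artifact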
[20] = molecular target: T4, Probable nicotinate-nucleotide adenylyltransferase (Staphylococcus aureus (strain N315), UniProt P65502); assay type: functional, Staphylococcus aureus subsp. aureus N315;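 for IC50 Mean: confirmatory dose-response retesting of NadD inhibitor hits first found in an ultra-high-throughput screen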
T4 sequence (P65502 whole entry): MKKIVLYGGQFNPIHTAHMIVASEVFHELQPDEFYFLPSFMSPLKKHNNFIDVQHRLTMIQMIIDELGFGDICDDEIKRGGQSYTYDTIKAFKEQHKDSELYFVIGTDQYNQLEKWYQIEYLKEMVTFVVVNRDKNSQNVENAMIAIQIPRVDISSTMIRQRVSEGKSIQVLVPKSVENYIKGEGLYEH

[21] = molecular target: T4, Probable nicotinate-nucleotide adenylyltransferase; assay type: functional, Staphylococcus aureus subsp. aureus N315; settings: read-out: IC50_Mean
[22] = molecular target: SWI/SNF-related matrix-associated actin-dependent regulator of chromatin subfamily A member 2 (Homo sapiens, UniProt P51531); assay: Luminescence-based cell-based high throughput dose response assay to identify activators of the function of SWI/SNF related, matrix associated, actin dependent regulator of chromatin, subfamily a, member 2 (SMARCA2, BRM).; assay type: functional
Sequence of SWI/SNF-related matrix-associated actin-dependent regulator of chromatin subfamily A member 2 (P51531 whole entry): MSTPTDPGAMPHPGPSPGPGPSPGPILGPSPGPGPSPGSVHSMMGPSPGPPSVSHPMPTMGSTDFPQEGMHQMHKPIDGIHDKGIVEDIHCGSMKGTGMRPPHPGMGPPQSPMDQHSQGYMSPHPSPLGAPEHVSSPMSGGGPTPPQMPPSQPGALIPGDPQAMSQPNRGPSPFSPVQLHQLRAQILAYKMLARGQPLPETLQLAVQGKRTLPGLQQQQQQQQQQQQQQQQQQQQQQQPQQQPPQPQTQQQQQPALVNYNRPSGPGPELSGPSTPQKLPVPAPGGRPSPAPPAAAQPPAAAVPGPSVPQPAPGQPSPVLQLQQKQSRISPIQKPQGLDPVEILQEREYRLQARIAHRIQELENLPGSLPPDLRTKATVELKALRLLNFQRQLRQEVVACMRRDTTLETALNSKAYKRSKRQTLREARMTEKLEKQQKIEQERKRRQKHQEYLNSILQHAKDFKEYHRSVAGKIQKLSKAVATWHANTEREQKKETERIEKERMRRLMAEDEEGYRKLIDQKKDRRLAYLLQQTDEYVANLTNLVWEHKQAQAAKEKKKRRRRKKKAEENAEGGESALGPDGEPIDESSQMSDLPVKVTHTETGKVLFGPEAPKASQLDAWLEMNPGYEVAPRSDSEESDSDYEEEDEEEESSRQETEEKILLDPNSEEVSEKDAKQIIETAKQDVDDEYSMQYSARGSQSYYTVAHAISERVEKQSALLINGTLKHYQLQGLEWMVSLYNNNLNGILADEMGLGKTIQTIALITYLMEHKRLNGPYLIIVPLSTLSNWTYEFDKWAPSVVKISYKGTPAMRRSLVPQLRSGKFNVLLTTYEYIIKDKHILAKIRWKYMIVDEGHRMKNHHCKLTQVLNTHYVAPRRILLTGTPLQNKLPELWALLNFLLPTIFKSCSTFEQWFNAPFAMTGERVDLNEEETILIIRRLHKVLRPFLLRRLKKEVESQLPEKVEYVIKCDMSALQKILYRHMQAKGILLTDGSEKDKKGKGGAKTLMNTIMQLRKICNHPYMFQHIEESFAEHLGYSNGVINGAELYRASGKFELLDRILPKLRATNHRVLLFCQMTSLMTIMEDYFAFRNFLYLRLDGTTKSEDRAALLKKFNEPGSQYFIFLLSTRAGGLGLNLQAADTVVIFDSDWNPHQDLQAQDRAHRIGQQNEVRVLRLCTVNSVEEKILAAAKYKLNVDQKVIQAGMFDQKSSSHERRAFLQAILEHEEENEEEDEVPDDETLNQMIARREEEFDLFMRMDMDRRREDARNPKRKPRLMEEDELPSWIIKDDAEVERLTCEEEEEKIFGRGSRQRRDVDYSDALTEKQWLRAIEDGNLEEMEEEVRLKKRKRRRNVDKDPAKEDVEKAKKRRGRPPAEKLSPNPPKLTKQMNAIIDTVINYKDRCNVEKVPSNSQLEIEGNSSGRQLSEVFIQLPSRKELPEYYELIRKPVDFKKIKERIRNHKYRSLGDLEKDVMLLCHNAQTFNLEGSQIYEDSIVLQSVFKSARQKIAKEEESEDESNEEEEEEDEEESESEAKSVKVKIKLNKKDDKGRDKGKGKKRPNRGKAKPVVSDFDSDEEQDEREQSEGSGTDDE

[23] = Counterscreen for activators of the function of SWI/SNF related, matrix associated, actin dependent regulator of chromatin, subfamily a, member 2 (SMARCA2, BRM): Luminescence-based cell-based high throughput dose response assay to identify non-selective compounds using the VP16 reporter assay.; assay type: functional
[24] = molecular target: 26S proteasome non-ATPase regulatory subunit 14 (Homo sapiens, UniProt O00487); assay: inhibition of proteasome subunit RPN11 – biochemical, fluorescence polarization, uHTS hits, confirmation (AID 602368); assay type: functional
Sequence of 26S proteasome non-ATPase regulatory subunit 14 (O00487 whole entry): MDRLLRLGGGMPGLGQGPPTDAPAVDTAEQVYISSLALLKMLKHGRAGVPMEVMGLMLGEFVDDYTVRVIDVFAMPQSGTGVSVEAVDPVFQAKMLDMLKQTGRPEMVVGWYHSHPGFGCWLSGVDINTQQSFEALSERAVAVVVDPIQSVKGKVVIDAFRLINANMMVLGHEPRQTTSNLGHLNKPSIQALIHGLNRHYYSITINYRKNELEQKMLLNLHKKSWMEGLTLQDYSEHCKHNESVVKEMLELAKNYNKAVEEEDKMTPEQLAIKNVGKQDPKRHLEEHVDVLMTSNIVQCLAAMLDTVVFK

[25] = molecular target: 72 kDa type IV collagenase (Homo sapiens, UniProt P08253); assay: Dose Response validation of uHTS RPN11 inhibitor hits using a MMP-2 Fluorescence assay.; assay type: functional
Prothrombin = Prothrombin (Bos taurus, UniProt P00735); assay: thrombin protease inhibitors – biochemical, fluorescence polarization, uHTS hits, dose response (AID 602369); assay type: functional
cells [26] = assay type: functional, cell-based; remark: listed apart in the source
[27] = molecular target: Nuclear receptor subfamily 0 group B member 1 (Homo sapiens, UniProt P51843); assay type: functional, cell-based;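 note: HEK293T cells transfected with SF-1 and DAX-1 plus StAR promoter luciferase reporter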
Sequence of Nuclear receptor subfamily 0 group B member 1 (P51843 whole entry): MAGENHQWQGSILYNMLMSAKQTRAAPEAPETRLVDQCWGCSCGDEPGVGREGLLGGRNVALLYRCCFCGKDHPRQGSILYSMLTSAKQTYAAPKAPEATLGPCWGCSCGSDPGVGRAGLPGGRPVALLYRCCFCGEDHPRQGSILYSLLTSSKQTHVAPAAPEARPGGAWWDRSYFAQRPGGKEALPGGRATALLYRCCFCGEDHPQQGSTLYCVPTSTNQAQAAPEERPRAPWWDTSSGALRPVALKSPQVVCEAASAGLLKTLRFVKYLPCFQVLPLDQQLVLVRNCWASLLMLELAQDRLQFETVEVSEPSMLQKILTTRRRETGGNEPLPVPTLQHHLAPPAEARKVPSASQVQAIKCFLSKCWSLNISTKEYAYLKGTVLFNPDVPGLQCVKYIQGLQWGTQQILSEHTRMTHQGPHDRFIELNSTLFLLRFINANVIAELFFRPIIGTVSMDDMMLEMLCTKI

In the case of Cc1cc(C)n(CCC(=O)N/N=C/c2c(O)ccc3ccccc23)n1, the EC50 [1] is reported as 11 µM (active), the EC50 (cells [2]) is reported as 9.7 µM (active) and the EC50 [3] is reported as 11 µM (active). The EC50 [4] was 8.69 µM (active), the EC50 (cells [5]) was > 350 µM (not active) and the AC50 [6] was 45.1 µM (active). For the same molecule, the AC50 (INS1) was 3.53 µM (active), the AC50 (A-375) was 52.3 µM (active) and the AC50 (Escherichia coli) was 40.1 µM (active).

For COc1ccc(CNC(=O)CSc2n[nH]c3c4cc(C)ccc4nc-3n2)cc1, the IC50 [7] was 11 µM (inactive), the IC50 [8] was 83.3 µM (inactive) and the IC50 [9] was 0.72 µM (active).

With O=S(=O)(Nc1cccc(-c2cn3cccnc3n2)c1)c1ccc(-c2ccccc2)cc1 the EC50 (HEK293 [10]) was 8.6 µM (active), the IC50 (HEK293 [11]) was 6.52 µM (active) and the IC50 (HEK293 [12]) was 14.5 µM (active). For the same molecule, the EC50 [13] was 10.3 µM (active), the IC50 (HEK293 [14]) was 6.98 µM (active) and the IC50 (HEK293 [15]) was > 20 µM (inactive). For the same molecule, the EC50 [16] was 4.33 µM (active).

In the case of C=CCn1c(CNc2ccccc2)nnc1SCC(=O)N/N=C/c1ccc(O)cc1O, the IC50 (Large T antigen) is reported as > 100 µM (active), the AC50 [17] is reported as 5.46 µM (active) and the IC50 [18] is reported as 68.8 µM (active). For the same molecule, the AC50 [19] was 102 µM (active).

For O=C(CSc1nnc(-c2cc3ccccc3cc2O)n1Cc1ccco1)N1CCc2ccccc2C1, the IC50 [20] was 9.71 µM (active) and the IC50 [21] was 30.6 µM (active).

For O=C(NC(=S)Nc1ccc(Br)cn1)c1cccnc1, the EC50 [22] was > 91.2 µM (inactive) and the EC50 [23] was > 91.2 µM (inactive).

For COc1ccc(C2c3ccc(O)cc3Oc3ncn4nc(-c5ccccn5)nc4c32)cc1OC (stereo not drawn), the AC50 [19] was 122 µM (active).

For O=C(N/N=C/c1ccccc1)c1ccc(CN2C(=O)c3cccc4cccc2c34)cc1, the IC50 [24] was 10.7 µM (active), the IC50 [25] was > 100 µM (inactive) and the IC50 (Prothrombin) was 69.8 µM (active).

In the case of O=C(N/N=C/c1ccsc1)c1ccccn1, the IC50 (cells [26]) is reported as > 67.5 µM (inactive) and the IC50 [27] is reported as > 67.5 µM (inactive).
